Experimental data: patent US4659730A, “Aromatase inhibiting imidazole derivatives” (Eli Lilly and Company, priority 1984, dated 1987)
Where a name gives a salt, the structure may show the parent alone. Read-outs that look alike come from different tables or passages of the source.

Key:
aromatase = molecular target: T1, aromatase (Rattus norvegicus, UniProt P22443); test: biochemical
T1 sequence (P22443 1-508): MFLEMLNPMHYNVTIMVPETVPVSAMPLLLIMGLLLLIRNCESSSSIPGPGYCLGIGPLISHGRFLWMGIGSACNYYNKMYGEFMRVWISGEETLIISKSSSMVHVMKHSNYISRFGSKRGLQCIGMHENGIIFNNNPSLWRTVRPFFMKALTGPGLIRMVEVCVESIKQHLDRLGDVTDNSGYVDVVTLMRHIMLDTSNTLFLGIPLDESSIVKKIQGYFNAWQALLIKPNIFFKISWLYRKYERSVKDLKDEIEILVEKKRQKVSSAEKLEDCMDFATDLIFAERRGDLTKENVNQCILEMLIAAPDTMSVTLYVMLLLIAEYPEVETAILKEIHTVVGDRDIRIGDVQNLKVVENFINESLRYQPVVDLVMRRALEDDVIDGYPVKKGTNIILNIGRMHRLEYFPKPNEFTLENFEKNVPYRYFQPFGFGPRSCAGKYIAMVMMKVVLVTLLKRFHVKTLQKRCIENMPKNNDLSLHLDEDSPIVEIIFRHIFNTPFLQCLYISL
Experimental: In this test system, ovarian microsomes are obtained from rats treated with pregnant mares serum gonadotropin. Test compounds are added to reaction vials containing 0.1 μM 4-androstene-3,17-dione, 100,000 dpm 1,2[^3 H]-androstenedione, the microsomes and a NADPH generating system. The concentrations of the inhibitors tested ranged between 0.005 and 10 μM.

breast cancer = conditions: known aromatase inhibitors; Cancer Research, Vol. 42, Suppl. 8:3261s (1982); cited from earlier work
[1] = tested on: aromatization (estrogen synthesis); test: Estrogen synthesis inhibition in rats (uterine weight and ovarian steroid levels); type: in vivo, rat (immature female Wistar); conditions: 7 days; for Mean Uterine Weight: testosterone propionate-treated rats; for Mean Steroid Concentration, estrone / Mean Steroid Concentration, estriol / Mean Steroid Concentration, estradiol: ovaries; for Mean Steroid Concentration, estrone: testosterone-treated control 0.19; for Mean Steroid Concentration, estriol: testosterone-treated control 0.53; for Mean Steroid Concentration, estradiol: testosterone-treated control 0.55
[2] = rat ovarian microsomes, substrate (androstenedione) concentration 0.1 μM
[3] = 30 ppm in feed (approx. 3 mg/kg/day)
[4] = 300 ppm in feed (approx. 30 mg/kg/day)

Work on `c1ccc2c(c1)OCCC2n1ccnc1` (stereo not drawn) [1-(3,4-dihydro-2H-1-benzopyran-4-yl)-1H-imidazole hydrochloride] yielded an EC50 (aromatase; [2]) of 2800 nM.
`c1ccc2c(c1)CCC2n1ccnc1` (stereo not drawn) [nitrate] gave an EC50 (aromatase) of 810 nM.
Work on `COc1cccc2c1CCCC2n1ccnc1` (stereo not drawn) [nitrate] yielded an EC50 (aromatase) of 250 nM.
Compound `COc1ccc(OC)c2c1CCC2n1ccnc1` (stereo not drawn) [nitrate] has an EC50 (aromatase) of 870 nM.
`Clc1cccc2c1CCC2n1ccnc1` (stereo not drawn) [1-(4-chloro-2,3-dihydro-1H--inden-1-yl)-1H--imidazole nitrate] showed an EC50 (aromatase; [2]) of 680 nM.
Compound `Clc1cc(Cl)c2c(c1)C(n1ccnc1)CC2` (stereo not drawn) [nitrate] has an EC50 (aromatase) of 115 nM.
For `CCC1(c2ccc(N)cc2)CCC(=O)NC1=O` (stereo not drawn) [aminoglutethimide], the “effect in treatment of breast cancer” value (breast cancer) is listed as “beneficial effect in treatment of breast cancer”.
Work on `c1ccc2c(c1)CCCC2n1ccnc1` (stereo not drawn) [nitrate] yielded an EC50 (aromatase) of 520 nM.
In the case of `c1ccc2c(c1)SCCC2n1ccnc1` (stereo not drawn) [nitrate], the EC50 (aromatase) is reported as 1020 nM.
In the case of `C[C@]12C=CC(=O)C=C1CC[C@@H]1[C@@H]2CC[C@]2(C)OC(=O)CC[C@@H]12` [testolactone], the “effect in treatment of breast cancer” value (breast cancer) is given as “beneficial effect in treatment of breast cancer”.
For `COc1ccc2c(c1)C(n1ccnc1)CCC2` (stereo not drawn) [nitrate], the EC50 (aromatase) was 450 nM.
`Clc1ccc2c(c1)C(n1ccnc1)CCC2` (stereo not drawn) [1-(7-chloro-1,2,3,4-tetrahydro-1-naphthalenyl)-1H--imidazole nitrate] showed an EC50 (aromatase; [2]) of 100 nM.
For `Clc1cc2c(cc1Cl)C(n1ccnc1)CC2.O=[N+]([O-])O` (stereo not drawn), the “Mean Uterine Weight” value ([1]; 30 ppm in feed (approx. 3 mg/kg/day), 4 animals, testosterone-treated control 140.8) was 152.5 mg, the “Mean Uterine Weight” value ([1]; 300 ppm in feed (approx. 30 mg/kg/day), 5 animals, significantly different from testosterone-treated control (140.8), p < 0.05) was 103.2 mg and the “Mean Steroid Concentration, estrone” value [1, 3] was 0.21 femtomoles per milligram of protein. The “Mean Steroid Concentration, estriol” value [1, 3] was 0.46 femtomoles per milligram of protein, the “Mean Steroid Concentration, estradiol” value [1, 3] was 0.71 femtomoles per milligram of protein and the “Mean Steroid Concentration, estrone” value [1, 4] was 0.17 femtomoles per milligram of protein. The “Mean Steroid Concentration, estriol” value [1, 4] was 0.49 femtomoles per milligram of protein and the “Mean Steroid Concentration, estradiol” value [1, 4] was 0.35 femtomoles per milligram of protein.
With `Clc1cc2c(cc1Cl)C(n1ccnc1)CC2.O=[N+]([O-])O` (stereo not drawn) [nitrate] the EC50 (aromatase) was 78 nM.
